Key:
[1] = Maximum wavelength of formed pigment; format: physicochemical
Experimental: 50 μl of 1 mM each free compound was added to 3 ml of 0.1M phosphate buffer containing 0.5 mg/ml EMSE and 1 U/ml laccase and the mixture was incubated at 37° C. for 5 minutes. The absorption of the reaction solution at λmax was measured. As a control, 5-aminosalicylic acid was used and the reaction of the compound with 2,6-xylenol was carried out in the presence of metaperiodate under strong alkaline conditions.

[2] = Stability of pigment; format: physicochemical
[3] = target: T1, γ-glutamyltranspeptidase (γ-GTP) (Homo sapiens, UniProt P19440); assay: γ-GTP determination in serum (Example 3); format: biochemical; conditions: found with the compound as substrate; standard serum 235 mU/ml; 37° C., 5 minutes; wavelength of Table 2
T1 construct: from tissue; host or cells: serum
Experimental: In this example, 500 mg of compound Nos. 1, 3, 5, 7 and 9 each and 500 mg of glycylglycine were dissolved in 100 ml (pH=7.7) and 0.1M phosphate buffer. The resultant solutions were designated A-1, A-3, A-5, A-7 and A-9, respectively. 50 mg of 3-{N-(m-tolyl)-N-ethyl}amino-2-hydroxypropane sulfonic acid was dissolved in 100 ml of phosphate buffer solution to obtain solution B. 50 mg/ml sodium meta-periodate containing 1N-HCl solution was prepared as solution C.
6 ml of solution A-1, A-3, A-5, A-7 or A-9 was equally poured to 3 test tubes. The samples were incubated at 37° C. and to the solution was added […] of (a) serum sample (b) standard serum or (c) water. The mixtures were stirred and heated for 5 minutes. After 5 minutes had passed, 1 ml of solution B and 1 ml of solution C were added to each of the mixtures and the mixtures were incubated for 10 minutes after stirring. As the standard serum, a serum having 235 mU/ml of γ-GTP was used.
The γ-GTP activity of the serum sample can be calculated by the following equation. [formula]

[4] = Solubility of substrate; format: physicochemical; conditions: read-out: S: Solubility

T1 sequence (P19440 1-380 limits assumed): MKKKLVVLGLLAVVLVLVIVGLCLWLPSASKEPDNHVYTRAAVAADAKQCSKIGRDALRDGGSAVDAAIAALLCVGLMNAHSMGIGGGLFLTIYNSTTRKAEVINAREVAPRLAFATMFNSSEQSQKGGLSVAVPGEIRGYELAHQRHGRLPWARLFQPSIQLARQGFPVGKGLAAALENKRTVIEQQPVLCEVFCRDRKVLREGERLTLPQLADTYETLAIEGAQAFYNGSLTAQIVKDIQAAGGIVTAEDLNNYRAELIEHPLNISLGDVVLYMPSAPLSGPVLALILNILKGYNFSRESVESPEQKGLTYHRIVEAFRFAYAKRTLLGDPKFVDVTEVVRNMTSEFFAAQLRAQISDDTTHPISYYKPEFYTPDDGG
T1 sequence (P19440 381-569 limits assumed): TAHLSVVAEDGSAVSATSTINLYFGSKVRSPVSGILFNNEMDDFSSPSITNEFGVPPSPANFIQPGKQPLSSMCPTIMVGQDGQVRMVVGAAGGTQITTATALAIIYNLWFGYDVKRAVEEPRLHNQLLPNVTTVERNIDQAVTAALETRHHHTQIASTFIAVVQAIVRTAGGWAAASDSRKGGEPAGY

λmax: Maximum wavelength [1] [nm]	ST: Stability of pigment [2] [%]	γ-GTP activity of the serum sample [3] [mU/ml]	solubility [4] [mg/mL]	SMILES
680	93	240	> 20	N[C@@H](CCC(=O)Nc1ccc(N(CCCS(=O)(=O)O)CCCS(=O)(=O)O)c(S(=O)(=O)O)c1)C(=O)O [compound 7]
685	> 98	242	> 200	N[C@@H](CCC(=O)Nc1ccc(N(CCCS(=O)(=O)O)CCCS(=O)(=O)O)c(Cl)c1)C(=O)O [compound 9]
